Test results reported in US20030039661A1, “Methods, compositions and kits for preserving antigenicity” (priority 2001, published 2003).
Values belong to the compound of their own block, whether it stands above or below them. Peptide text beside a SMILES is read from it. * marks the point of attachment. Cbz = O=C(OCc1ccccc1)*; CH2F = FC*

Tests used:
T-lymphocyte cell line = conditions: cited from earlier work
granulocytes [1] = assay: Granulocyte survival, hypodiploid nuclei by propidium iodide flow cytometry (isolated granulocytes in culture); type: cell-based; conditions: FIG. 6; for IC50: isolated granulocytes cultured at 37° C., read-out: IC50 for granulocyte survival (hypodiploid DNA)
Experimental: Neutrophil Culture Conditions:
The culture media was as follows: (RPMI 1640; 10% FBS; 10 mM Hepes; 0.2 mM L-glutamine; 25 U/ml penicillin; and […] streptomycin).
Purified neutrophil maintenance was performed under the following conditions: (5×10^6 cells/ml in above culture media; Polystyrene round-bottom 96-well plates; 250 μl/well; and 37° C., 5% CO2/95% air humidified incubator) (Liles et al., Blood 119 (1995) 3181-3188).
Analysis of Hypodiploid Nuclei by Flow Cytometry:
(50 μg/ml propidium iodide (Sigma catalog#P4170); 0.1% Triton X-100; and 0.1 sodium citrate).
Neutrophils were pelleted at 4° C. and the supernate aspirated.
Neutrophils were resuspended in hypotonic fluorochrome solution at a density of 5×10^6 cells/ml. Propidium iodide fluorescence of individual nuclei was evaluated in FL2 and measured on a logarithmic scale while gating on physical parameters in forward and side scatter to exlude cell debris.
At least 10,000 events per sample were collected and the results were evaluated relative to a non-apoptotic neutrophil population. (Liles et al., Blood 119 (1995) 3181-3188).
The present invention provides methods to enhance the ex vivo survival of neutrophils/granulocytes. To establish the ability of compounds to preserve granulocytes in culture, compounds were tested in a number of in vitro assays. One common model to test for effects on granulocyte survival involves separating granulocytes from fresh whole blood, culturing the cells at 37° C. and testing cells for nuclear hypodiploidy at 24 hour intervals (as described in Example 110). The presence of hypodiploid DNA is a measure of apoptosis, and is assessed using a propidium iodide stain via flow cytometry. Compounds of the present invention were incubated with the granulocytes in culture, their effects on granulocyte survival measured, and an IC50 calculated.

granulocytes [2] = assay: Respiratory burst in isolated neutrophils measured by chemiluminescence (opsonized zymosan); type: cell-based; conditions: FIG. 7
Experimental: Respiratory Burst in Isolated Neutrophils Measured by Chemiluminescence
Whole blood anticoagulated with Acid Citrate Dextrose (ACD) with a ratio of 1:5 ACD to blood was collected (150 ml).
Neutrophils were isolated as described above.
Opsonized zymosan was prepared by suspending 125 mg zymosan particles in 25 ml pooled human serum (5 mg/ml) and incubating them for 20 minutes at 37° C. Centrifuge the suspension and resuspend the particles in 7 ml of PBS (18 mg/ml) and stored on ice until use (vortex prior to pipetting).
50 ml of a 250 μM solution of Lucigenin (MW 510.5) was prepared by dissolving 6.4 mg of the solid in 50 ml of PBS-G (+Ca, Mg). 10 μl of PBS-G (+Ca, Mg) to the wells in a white 96 well plate.
50 μl of the 250 μM Lucigenin solution was added to the wells in a white 96 well plate.
Cell preparations were obtained from cell culture (concentration at time zero=5.0×10^6 cells/ml) with PBS-G (+Ca, Mg).
20 μl of the neutrophil suspension was suspended to the appropriate wells and the plate was incubated at 37° C. for three minutes. 10 μl of the opsonized zymosan was added to the wells.
The plate was read on the luminometer (Labsystems Luminoskan, Needham Heights, Mass.) for 14 min. at 37° C. in the kinetic mode and record results using the software DeltaSoft.
The ability to undergo the respiratory burst is another measure of granulocyte viability. The respiratory burst is a physiological response of granulocytes to foreign stimuli such as bacteria. In this example, the method for inducing the respiratory burst utilized opsonized bacterial zymosan. The respiratory burst was measured via chemiluminescence.

[3] = tested on: granulocytes in whole blood; assay: Whole blood assay: survival of granulocytes in whole blood by hypodiploid analysis; type: cell-based
Experimental: The following protocol was followed:
200 μl blood sample/2.8 ml 1× lysis solution in a 15 ml polypropylene conical tube.
Add 20 μl/sample anti-CD32-FITC. Incubate 30 minutes on ice in the dark.
Add 3 ml/sample ice-cold 95% EtOH dropwise while vortexing gently.
Resuspend each sample in 50 μl 5 mg/ml RN'ase. Transfer sample to 900 μl/sample.
50 μg/ml Propidium Iodide in 12×75 mm Falcon polystyrene tubes.
Analyze samples by flow cytometry (argon laser) for forward and side scatter and fluorescence.
Survival of granulocytes in whole blood was measured by hypodiploid analysis in a similar fashion to isolated granulocytes via flow cytometry. ICE/ced-3 inhibitors of the present invention maintained survival of granulocytes in whole blood for 96 hours at room temperature as indicated in the table below: […]

motoneurons = conditions: in vitro and in vivo; cited from earlier work
mammary epithelial cells = conditions: in the absence of extracellular matrix; cited from earlier work
[4] = after granulocyte culture for 72 hours
[5] = granulocyte culture for 48 hours

melting point: 145 to 160 °C (dec.)
Compound: O=C(O)CCC(=O)N[C@H]1CCc2cccc3c2N(C1=O)[C@H](C(=O)N[C@H]1CC(=O)OC1O)C3 (some centres unmarked) [Example 85]

melting point: 109 to 111 °C (dec.)
Compound: O=C(O)C[C@H](NC(=O)[C@@H]1Cc2cccc3c2N1C(=O)[C@@H](NC(=O)OCc1ccccc1)CC3)C(=O)COP(=O)(c1ccccc1)c1ccccc1 [Example 109, 3-[(2S-cis)-[5-benzyloxycarbonylamino-1,2,3,4,5,6,7-hexahydro-4-oxoazepino[3,2,1-hi]indole-2-carbonyl]amino]-5-(diphenylphosphinyl)oxy-4-oxo-pentanoic Acid]

melting point: 204 to 205 °C (dec.)
Compound: O=C1C[C@H](NC(=O)[C@@H]2Cc3cccc4c3N2C(=O)[C@@H](NC(=O)c2ccccc2)CC4)C(O)O1 (some centres unmarked) [Example 100]

melting point: 202 to 203 °C (dec.)
Compound: O=C1C[C@H](NC(=O)[C@@H]2Cc3cccc4c3N2C(=O)[C@@H](NC(=O)c2cccc3ccccc23)CC4)C(O)O1 (some centres unmarked) [Example 97]

melting point: 140 to 144 °C (dec.)
Compound: O=C(O)C[C@H](NC(=O)OCc1ccccc1)C(=O)N[C@H]1CCc2cccc3c2N(C1=O)[C@H](C(=O)N[C@H]1CC(=O)OC1O)C3 (some centres unmarked) [Example 88]

melting point: 101 to 104 °C
Compound: O=C1C[C@H](NC(=O)[C@@H]2Cc3cccc4c3N2C(=O)[C@@H](NC(=O)OCc2ccccc2)CC4)C(O)O1 (some centres unmarked) [Example 78]

melting point: 78 to 81 °C
Compound: O=C(CCc1ccccc1)N[C@H]1CCc2cccc3c2N(C1=O)[C@H](C(=O)N[C@H]1CC(=O)OC1O)C3 (some centres unmarked) [Example 91]

Compound: CC(=O)N[C@@H](CC(=O)O)C(=O)N[C@@H](CCC(=O)O)C(=O)N[C@H](C(=O)N[C@H](C=O)CC(=O)O)C(C)C [acetyl-DEVD-aldehyde]
anti-Fas induced apoptosis (T-lymphocyte cell line): inhibited

Compound: Cc1c(C(=O)N[C@H](C(=O)NC(CC(=O)O)C(=O)COC(=O)c2c(Cl)cccc2Cl)C(C)C)n(C)c2ccccc12 (some centres unmarked) [Example 70, N-[N-(1,3-dimethyl-indole-2-carbonyl)-valinyl]-3-amino-5-(2,6-dichlorobenzoyl)oxy-4-oxo-pentanoic Acid]
IC50 (granulocytes [1]): < 5 µM
maintenance of the respiratory burst (granulocytes [2]; [4]): partially maintained
maintenance of the respiratory burst (granulocytes [2]; [5]): substantially maintained
Percentage of diploid granulocytes in whole blood ([3]; 96 hours at room temperature): 89%
Percentage of diploid granulocytes in whole blood ([3]; time zero): 96%

Compound: O=C(O)CC(NC(=O)[C@@H]1Cc2cccc3c2N1C(=O)[C@@H](NC(=O)OCc1ccccc1)CC3)C(=O)CF (some centres unmarked) [Example 106]
IC50 (granulocytes [1]): < 5 µM

melting point: 210 to 215 °C (dec.)
Compound: CC(=O)N[C@H]1CCc2cccc3c2N(C1=O)[C@H](C(=O)N[C@H]1CC(=O)OC1O)C3 (some centres unmarked) [Example 94]

Compound: acetyl-AD-aldehyde
death of motoneurons (motoneurons): blocked

Compound: Cc1c(C(=O)N[C@H](C(=O)NC(CC(=O)O)C(=O)CF)C(C)C)n(C)c2ccccc12 (some centres unmarked) [Example 43, N-[(1.3-dimethylindole-2-carbonyl)valinyl]-3-amino-4-oxo-5-fluoropentanoic Acid]
maintenance of the respiratory burst (granulocytes [2]; [4]): partially maintained
maintenance of the respiratory burst (granulocytes [2]; [5]): substantially maintained
Percentage of diploid granulocytes in whole blood ([3]; 96 hours at room temperature): 91%
Percentage of diploid granulocytes in whole blood ([3]; time zero): 96%

melting point: 120 to 123 °C (dec.)
Compound: O=C1C[C@H](NC(=O)C2CCc3cccc4c3N2C(=O)[C@@H](NC(=O)OCc2ccccc2)CC4)C(O)O1 (some centres unmarked) [Example 103]

Compound: CC(=O)N[C@@H](Cc1ccc(O)cc1)C(=O)N[C@H](C(=O)N[C@@H](C)C(=O)N[C@@H](CC(=O)O)C(=O)CCl)C(C)C [acetyl-YVAD-chloromethylketone]
death of motoneurons (motoneurons): blocked

Compound: CC(C)(C)OC(=O)N[C@@H](CC(=O)OCc1ccccc1)C(=O)CCl [Boc-D-(benzyl) chloromethylketone]
cell death of mammary epithelial cells (mammary epithelial cells): prevented

Compound: COC(=O)C[C@H](NC(=O)[C@H](C)NC(=O)[C@@H](NC(=O)OCc1ccccc1)C(C)C)C(=O)CF [zVADfmk, reference compound] (Cbz-Val-Ala-Asp(OMe)-CH2F)
effect on improving granulocyte survival (granulocytes [1]; at 48 hours): weak effect
maintenance of the respiratory burst (granulocytes [2]; time not stated): did not maintain

melting point: 160 to 175 °C (dec.)
Compound: CC(=O)N[C@@H](CC(=O)O)C(=O)N[C@H]1CCc2cccc3c2N(C1=O)[C@H](C(=O)N[C@H]1CC(=O)OC1O)C3 (some centres unmarked) [Example 82]
